From ChEMBL document CHEMBL4342495, “Structure-Activity Relationship and Anticancer Profile of Second-Generation Anti-MRSA Synthetic Retinoids” (ACS Med Chem Lett, 2020)
Values after ≈ are worked out from the molar mass of the structure shown.

Assays:
[1] = Hemolytic activity against human erythrocytes measured after 1 hr; assay type: ADME, cell-based, Erythrocyte
Staphylococcus aureus [2] = test: Antibacterial activity against methicillin-resistant Staphylococcus aureus MW2 BAA 1707 assessed as growth inhibition by standard microdilution method; assay type: functional
HepG2 = test: Cytotoxicity against human HepG2 cells assessed as reduction in cell viability measured after 24 hrs by WST1 assay; assay type: functional; conditions: HepG2, 24 h, read-out: LC50 (the source's name)
Staphylococcus aureus [3] = test: Antibacterial activity against methicillin-resistant Staphylococcus aureus MW2 assessed as growth inhibition; assay type: functional
Staphylococcus aureus [4] = test: Antibacterial activity against vancomycin-resistant Staphylococcus aureus VRS1 assessed as growth inhibition by standard microdilution method; assay type: functional
HeLa = test: Cytotoxicity against human HeLa cells assessed as reduction in cell viability measured after 24 hrs by WST1 assay; assay type: functional; conditions: read-out: LC50 (the source's name)
Staphylococcus aureus [5] = test: Antibiofilm activity against methicillin-resistant Staphylococcus aureus MW2 assessed as reduction in number of viable cells by measuring colony forming units at 16 fold MIC relative to control; assay type: functional
Staphylococcus aureus [6] = test: Antibacterial activity against methicillin-resistant Staphylococcus aureus ATCC 33591 assessed as growth inhibition by standard microdilution method; assay type: functional
Staphylococcus aureus [7] = test: Antibacterial activity against methicillin-resistant Staphylococcus aureus JE2 assessed as growth inhibition by standard microdilution method; assay type: functional

Compound | HC50 at 1 h [1] [µg/mL] | MIC (Staphylococcus aureus [2]) [µg/mL] | CC50 (HepG2) | MIC (Staphylococcus aureus [3]) [µg/mL] | MIC (Staphylococcus aureus [4]) [µg/mL] | CC50 (HeLa) [µg/mL] | inhibition (INH) (Staphylococcus aureus [5]) [%] | MIC (Staphylococcus aureus [6]) [µg/mL] | MIC (Staphylococcus aureus [7]) [µg/mL]
CC12CC3CC(C)(C1)CC(c1cc(-c4ccc5cc(CO)ccc5c4)ccc1O)(C3)C2 | > 64 | 8 | 11.7 µg/mL | – | – | – | – | – | –
O=C(O)c1ccc2cc(-c3ccc(O)c(C45CC6CC(CC(C6)C4)C5)c3)ccc2c1 [O-DEMETHYLATED ADAPALENE] | > 64 | 1 | 1.02 µg/mL | 2 (≈ 5.02 µM) | 1 | 0.21 (≈ 0.527 µM) | 90 | 1 | 1
CC12CC3CC(C)(C1)CC(c1cc(-c4ccc5cc(C(=O)O)ccc5c4)ccc1O)(C3)C2 | 15.2 | 2 | 1.84 µg/mL | – | 2 | 0.49 (≈ 1.15 µM) | – | 2 | 2
CCCCCCCc1cc(-c2ccc3cc(C(=O)O)ccc3c2)ccc1O | > 64 | 4 | 1.89 µg/mL | – | – | 0.6 (≈ 1.66 µM) | – | – | –
Cc1cc(-c2ccc3cc(CO)ccc3c2)ccc1O | > 64 | > 64 | > 32 µg/mL | – | – | – | – | – | –
CC(C)(C)c1cc(-c2ccc3cc(CO)ccc3c2)ccc1O | > 64 | 8 | 7.5 µg/mL | – | – | – | – | – | –
CCCCCc1cc(-c2ccc3cc(C(=O)O)ccc3c2)ccc1O | > 64 | 8 | 3.26 µg/mL | – | – | – | – | – | –
CCCCCC=Cc1cc(-c2ccc3cc(C(=O)O)ccc3c2)ccc1O | 45.4 | 8 | 2.44 µg/mL | – | – | – | – | – | –
CCCC=Cc1cc(-c2ccc3cc(CO)ccc3c2)ccc1O | > 64 | 4 | 3.89 µg/mL | – | – | – | – | – | –
CCCCCC=Cc1cc(-c2ccc3cc(CO)ccc3c2)ccc1O | > 64 | 4 | 4.19 µg/mL | – | – | – | – | – | –
O=C(O)c1ccc2cc(-c3ccc(O)cc3)ccc2c1 | > 64 | > 64 | > 32 µg/mL | – | – | – | – | – | –
CCCC=Cc1cc(-c2ccc3cc(C(=O)O)ccc3c2)ccc1O | > 64 | 16 | 5.38 µg/mL | – | – | – | – | – | –
CCCCCCCC=Cc1cc(-c2ccc3cc(CO)ccc3c2)ccc1O | > 64 | > 64 | 5.51 µg/mL | – | – | – | – | – | –
CCCCCCCCCc1cc(-c2ccc3cc(C(=O)O)ccc3c2)ccc1O | 22.8 | 4 | 1.73 µg/mL | – | – | – | – | – | –
CCCCCCCc1cc(-c2ccc3cc(CO)ccc3c2)ccc1O | > 64 | 4 | 3.61 µg/mL | – | – | – | – | – | –
CN[C@H](CC(C)C)C(=O)N[C@H]1C(=O)N[C@@H](CC(N)=O)C(=O)N[C@H]2C(=O)N[C@H]3C(=O)N[C@H](C(=O)N[C@H](C(=O)O)c4cc(O)cc(O)c4-c4cc3ccc4O)[C@H](O)c3ccc(c(Cl)c3)Oc3cc2cc(c3O[C@@H]2O[C@H](CO)[C@@H](O)[C@H](O)[C@H]2O[C@H]2C[C@](C)(N)[C@H](O)[C@H](C)O2)Oc2ccc(cc2Cl)[C@H]1O [VANCOMYCIN] | – | – | – | – | > 64 | – | – | – | –
CCCCCCCCCc1cc(-c2ccc3cc(CO)ccc3c2)ccc1O | > 64 | > 64 | 7.25 µg/mL | – | – | – | – | – | –
CCCCCc1cc(-c2ccc3cc(CO)ccc3c2)ccc1O | > 64 | 4 | 3.27 µg/mL | – | – | – | – | – | –
CCCCCCCC=Cc1cc(-c2ccc3cc(C(=O)O)ccc3c2)ccc1O | 51.5 | 4 | 2.6 µg/mL | – | – | – | – | – | –
CC(C)(C)c1cc(-c2ccc3cc(C(=O)O)ccc3c2)ccc1O | > 64 | 16 | 9.8 µg/mL | – | – | – | – | – | –
OCc1ccc2cc(-c3ccc(O)cc3)ccc2c1 | > 64 | > 64 | 1700 nM | – | – | – | – | – | –
Cc1cc(-c2ccc3cc(C(=O)O)ccc3c2)ccc1O | > 64 | > 64 | > 32 µg/mL | – | – | – | – | – | –
